In US7935726B1, “Tricyclic pyrones” (Kansas State University Research Foundation, priority 1999, dated 2011):

Legend:
CETP = target: T1, CETP (Homo sapiens, UniProt P11597); assay: inhibition of CETP; assay type: biochemical
T1 sequence (P11597 18-493): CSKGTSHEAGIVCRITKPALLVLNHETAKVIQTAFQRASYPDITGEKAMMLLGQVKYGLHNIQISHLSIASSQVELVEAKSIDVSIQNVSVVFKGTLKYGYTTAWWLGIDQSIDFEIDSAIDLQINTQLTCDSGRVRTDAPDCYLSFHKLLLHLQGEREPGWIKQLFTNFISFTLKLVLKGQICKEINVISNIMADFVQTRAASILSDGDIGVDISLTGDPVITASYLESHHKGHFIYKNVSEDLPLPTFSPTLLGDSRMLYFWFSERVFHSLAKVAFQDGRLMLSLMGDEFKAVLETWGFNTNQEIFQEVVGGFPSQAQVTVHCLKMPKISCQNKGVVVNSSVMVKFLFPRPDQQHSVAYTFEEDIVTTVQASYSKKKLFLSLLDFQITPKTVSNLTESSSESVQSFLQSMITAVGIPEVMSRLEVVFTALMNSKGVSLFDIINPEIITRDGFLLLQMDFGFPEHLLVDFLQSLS
From the text: (§1) The reported procedures for the inhibitory activities of ACAT (Tomoda, H.; Nishida, H.; Masuma, R.; Cao, J.; Okuda, S.; Omura, S. J. Antibiot. 1991, 44, 136-143), CETP (Tomoda, H.; Tabata, N.; Masuma, R.; Si, S.-Y.; Omura, S. J. Antibiot. 1998, 51, 618-623; D. H. Hua et al. Tetrahedron 2003, 59, 4795-4803), L1210 tumor cells (Perchellet, E. M.; Ladesich, J. B.; Magill, M. J.; Chen, Y.; Hua, D. H.; Perchellet, J. P. Anti-Cancer Drugs 1999, 10, 489-504), and APP C99-induced cell death (Jin, L.-W.; Hua, D. H.; Shie, F.-S.; Maezawa, I.; Sopher, B.; Martin, G. M. J. Mol. Neurosci. 2002, 19, 57-61) were followed.
ACAT mediates the esterification of intracellular cholesterol and is believed to play a key role in lipoprotein metabolism and atherogenesis (for a review: Suckling, K. E.; Stange, E. F. J. Lipid Res. 1985, 26, 647-671). […] The inhibition of CETP with these three compounds was then studied. CETP, a hydrophobic neutral glycoprotein, mediates the transfer of cholesteryl ester from high-density lipoprotein to low-density lipoprotein (For a review: Tall, A. R. J. Lipid Res. 1993, 34, 1255-1274). […] The N-(p-nitrophenyl)aspartamide portion of 104 was attached in order to study whether 104 was a substrate of […] (For a review: VIIIa, P.; Kaufmann, S. H.; Earnshaw, W. C. Trends Biochem. Sci. 1997, 22, 388-393). […] Compound 105 is cytotoxic to L1210 tumor cells, with IC50=30 μM. Aggarwal et al., J. Chem. Soc., Perkin Trans I (1999) 3315-3321 is incorporated by reference to the extent not inconsistent with the disclosure herewith.

ACAT = assay: inhibition of ACAT; assay type: biochemical
MC65 cells = assay: protection from APP C99-induced cell death in MC65 cells; assay type: cell-based; details: for protection of MC65 cells from death (in words): MC65 cells conditionally expressing partial APP fusion protein, absence of tetracycline; for EC50: MC65 cells in the absence of tetracycline
From the text: as §1, with “followed. […]” for “followed.”

[1] = target: T2, Human aldose reductase (AR) (Homo sapiens, UniProt P15121); assay: human AR inhibition assay (enzyme assay, NADPH absorption at 340 nm); assay type: biochemical; details: Table 4
T2 construct: made in house; host or cells: E. coli
Experimental: Human aldose reductase (AR) was obtained from overexpression of the human AR gene in an E coli system and was purified by column chromatography using a talon metal affinity column and eluted with a gradient mixture of Tris, NaCl buffer and imidazole solution. The human AR inhibition assay was conducted as follows. In a sample cuvette, 25 mM of D-xylose (75 mg/mL) and 0.15 mM of reduced nicotinamide adenine dinucleotide phosphate (NADPH) (4 mg/mL), and various amount of the inhibitor [in PBS (phosphate buffer saline) solution; the concentration of the inhibitor was determined using UV spectroscopy based on εmax at λmax of the drug] in 700 uL of PBS (a solution made of 1.44 g of Na2HPO4, 0.24 g KH2PO4, 0.2 g KCl, and 8 g NaCl in 1 L of distilled water) buffer (pH=6.1) solution and 200 uL of the AR enzyme (a final volume of 1 mL was obtained). The intensity of absorption of NADPH (λmax=340 nm) was measured. When xylose is reduced to xylitol, NADPH is converted into NADP and the absorption at 340 nm decreases. When AR is inhibited by the drug, the absorption at 340 nm of NADPH remains unchanged. Each assay was repeated three times and an average IC50 value was obtained.

[2] = test system: N/N 1003 lens epithelial cells; assay: tissue culture assay: galactitol formation from galactose in lens epithelial cells (GC/MS); assay type: cell-based; details: for inhibition at 10 µM: 10 uM inhibitor, 40 mM galactose media, lens epithelial cells, number of trials in parenthesis; for inhibition at 10 µM / % galactitol: 48 hours; for % galactitol: 40 mM galactose
Experimental: The activity of the drugs is tested in various ways, including tissue culture assays and assays testing aldose reductase inhibition. For the tissue culture assay, a lens epithelial cell line is grown in galactose with or without the drug. Cells are tested for polyol accumulation by GC/mass spectrometry. Levels of PKC are tested in homogenized cell pellets or in samples of lens, retina or sciatic nerves from treated patients. Tissue is homogenized and tested for PKCγ levels using Western blots. These procedures are described in more detail below.
The ability of the drugs to inhibit galactitol formation from galactose was also studied in N/N 1003 lens epithelial cells. Two sets of lens cells were grown in media with […] 40 mM galactose. Various concentrations of inhibitors were added initially and the cells were grown for 48 hours. The cells were lysed and galactose and galactitol were extracted out and the concentrations were determined using gas chromatography and mass spectrometry by silylating the crude extract with excess of trimethylsilyl chloride, trimethylsilyl imidazole and pyridine at 70° C. for 1 h.
40 mM galactose media was supplemented with 10 uM inhibitor and fed to lens epithelial cells for 48 hours.

PKC-γ = assay: galactose-fed rats: PKC-γ levels in lens and sciatic nerve (Western blot); assay type: in vivo, Sprague Dawley Rats; details: 100 mg/Kg body weight per day
Experimental: In order to test for in vivo effects of ARI's, rats were fed a 40% galactose diet for 9 days and the accumulation of galactitol was measured in lens tissue. This tissue has high aldose reductase activity and the eye has a separate vasculature. Thus, if the ARI works in the lens this is a good indication that the drug works and can penetrate to most tissues.
The specific experimental details follow. […] The rats were given food supplemented with inhibitor in the morning and then given food and water ad libitum the rest of the day. They were kept on a 12-hour on and 12-hour off light cycle. After 9 days, the rats were sacrificed with an overdose of CO2 and then eyes were taken and immediately frozen on dry ice for later polyol and PKC analyses. Experiments on all rats conformed to the ARVO resolution on the Use of Animals in Research.
The lenses were removed from the enucleated eyes and weighed. They were put in 200 μL lysis buffer (50 mM Tris, 100 mM NaCl, M-Per Pierre Zwitterionic detergent, 5 mM NaF, 1 mM Na3VO4, 40 mM β-glycerophosphate, 6 μg/mL chymotrypsin, 10 μM3,4-dichlorocoumarin, 10 μM E-64, 1 μg/mL leupeptin, 1 μg/mL pepstatin A, 1 μg/mL aprotinin, 1 mM PMSF, and 5 mM EDTA (Sigma). The lenses were then ground using a tissue grinder until they were a uniformly white solution. They were then sonicated to make certain all the cells were disrupted. The mixture was then centrifuged for 20 minutes at 0° C. at […]. The supernatant was then analyzed for protein content using […] (Pierce). Equal amounts of protein were loaded and separated on a 10% SDS polyacrylamide gel. The proteins were transferred to nitrocellulose (Midwest Scientific; pore size 0.45 μm). The western was blocked with a 3% milk solution, and then mouse anti-PKC γ (1:5000) or PKC α (1:1000) antisera (Transgenic Laboratories) were applied in a 3% milk solution overnight. […]
The effects of streptozotocin induced diabetes on PKC-γ levels in rat lens have been measured. […]

Q: For `CC(CO)[C@H]1CCC2=Cc3c(cc(CC(=O)OCc4ccccc4)oc3=O)O[C@H]2C1` (mixture of isomers) [Compound 102, Benzyl (5aS,7S)-{7-[(1R)- and (1S)-2-hydroxy-1-methylethyl]-1H,7H-5a,6,8,9-tetrahydro-1-oxopyrano[4,3-b][1]benzopyran-3-yl}acetate], which IC50 (CETP) is on record?
A: > 100 µM

Q: What about the IC50 (ACAT) of the same compound?
A: 310 µM

Q: With `CC(CO)[C@H]1CC[C@@H]2[C@H](C1)Oc1cc(CC(=O)OCc3ccccc3)oc(=O)c1[C@H]2O` (mixture of isomers) [Compound 103, Benzyl (5aS,7S,9aS,10S)-{10-hydroxy-7-[(1R) and (1S)-2-hydroxy-1-methylethyl]-1H,7H-5a,6,8,9-tetrahydro-1-oxopyrano[4,3-b][1]benzopyran-3-yl}acetate] as the compound, how does the IC50 (CETP) read?
A: 75 µM

Q: And the IC50 (ACAT)?
A: 150 µM

Q: Which results are given for `Cc1cc2c(c(=O)o1)C=C1CC[C@H](C(C)Cn3cnc(N)c4ncnc3-4)C[C@@H]1O2` (mixture of isomers) [Compound 106, (5aS,7S)-7-[(1R) and (1S)-2-(N-3-adenyl)-1-methylethyl]-3-methyl-1H,7H-5a,6,8,9-tetrahydro-1-oxopyrano[4,3-b][1]benzopyran]?
A: protection of MC65 cells from death (in words) (MC65 cells): protected from death; EC50 (MC65 cells): 0.15 µM; IC50 (CETP): > 250 µM; IC50 (ACAT): > 500 µM

Q: For `Cc1cc2c(c(=O)o1)C=C1CC[C@H](C(C)CNc3ncnc4[nH]cnc34)C[C@@H]1O2` (mixture of isomers) [Compound 107, (5aS,7S)-7-[(1R) and (1S)-2-(N10-Adenyl)-1-methylethyl]-3-methyl-1H,7H-5a,6,8,9-tetrahydro-1-oxopyrano[4,3-b][1]benzopyran], which “protection of MC65 cells from death (in words)” value (MC65 cells) is on record?
A: inactive

Q: And the EC50 (MC65 cells)?
A: > 3 µM

Q: For `Nc1ncnc2nc[nH]c12` [Adenine, reference compound], which “protection of MC65 cells from death (in words)” value (MC65 cells) is on record?
A: no activity

Q: And the EC50 (MC65 cells)?
A: > 10 µM

Q: With `O=C(O)C(O)Cc1cc2c(c(=O)o1)C=C1CCCCC1O2` (centres unmarked) [Compound 3, 2-Hydroxy-3-{1H,7H-5a,6,8,9-tetrahydro-1-oxopyrano[4,3-b][1]benzopyran-3-yl}-propanoic acid] as the compound, how does the IC50 ([1]; read-out: IC50 values obtained from the enzyme assay (aldose reductase)) read?
A: > 500 µM

Q: What about the inhibition at 10 µM ([2]; Epithelial cell) of the same compound?
A: < 10%

Q: Which water solubility (water solubility) does the source give for `O=C(O)CCc1cc2c(c(=O)o1)C=C1CCCCC1O2` (centres unmarked) [Compound 5a] here?
A: water soluble

Q: Which “IC50 values obtained from the enzyme assay (aldose reductase)” value [1] does the source give for `C=C(C)[C@H]1CCC2=Cc3c(cc(CC(=O)O)oc3=O)O[C@H]2C1` [Compound 6, {(5aS,7S)-7-Isopropenyl-1H,7H-5a,6,8,9-tetrahydro-1-oxopyrano[4,3-b][1]-benzopyran-3-yl}acetic acid] here?
A: No significant inhibition detected

Q: With `CC(CO)[C@H]1CCC2=Cc3c(cc(CC(=O)O)oc3=O)O[C@H]2C1` (some centres unmarked) [Compound 7] as the compound, how does the “IC50 values obtained from the enzyme assay (aldose reductase)” value [1] read?
A: No significant inhibition detected

Q: Which results are given for `C=C(C)[C@H]1CCC2=Cc3c(cc(CC(=O)OCc4ccccc4)oc3=O)O[C@H]2C1` [Compound 101, Benzyl (5aS,7S)-{7-isopropenyl-1H,7H-5a,6,8,9-tetrahydro-1-oxopyrano[4,3-b][1]benzopyran-3-yl}acetate]?
A: IC50 (CETP): > 100 µM; IC50 (ACAT): 157 µM

Q: What does the source list for `C=C(C)[C@H]1CCC2=Cc3c(cc(C)oc3=O)O[C@H]2C1` [Compound 108]?
A: EC50 (MC65 cells): > 10 µM; IC50 (ACAT): 167 µM

Q: With `COc1ccc2c(C(=S)N(C)CC(=O)O)cccc2c1C(F)(F)F` [Tolrestat, reference compound] as the compound, how does the water solubility (water solubility) read?
A: insoluble in water

Q: And the “% galactitol” value ([2]; 0.5 uM Tolrestat)?
A: 100%

Q: And the “% galactitol” value ([2]; 1 uM Tolrestat)?
A: 90%

Q: And the “% galactitol” value ([2]; 7 uM Tolrestat)?
A: 53%

Q: What about the IC50 ([2]; Epithelial cell) of the same compound?
A: 8 µM

Q: What about the inhibition at 10 µM ([2]; Epithelial cell) of the same compound?
A: 95 ± 4%

Q: What about the “PKC-γ levels in lens epithelial cells” value (PKC-γ; 40% galactose feed 9 days, FIG. 2, FIG. 3A) of the same compound?
A: remained near normal

Q: And the “PKC-γ levels in sciatic nerve cells” value (PKC-γ; high galactose feed, FIG. 3B)?
A: normalized
